Laboratory results from ChEMBL document CHEMBL5576125, “Discovery of Pyrazolopyrazines as Selective, Potent, and Mutant-Active MET Inhibitors with Intracranial Efficacy” (J Med Chem, 2024).

Experiments:
[1] = molecular target: T1, Hepatocyte growth factor receptor (Homo sapiens, UniProt P08581, D1228N); experiment: Displacement of tracer 236 from N-terminal GST-tagged recombinant human MET D1228N mutant (956 to end residues) expressed in Sf9 insect cells incubated for 1 hr by TR-FRET assay
[2] = Displacement of tracer 236 from N-terminal GST-tagged recombinant human MET exon 14 deletion mutant (956 to end residues) expressed in Sf9 insect cells incubated for 1 hr by TR-FRET assay
[3] = molecular target: Hepatocyte growth factor receptor (Homo sapiens, UniProt P08581, F1200I); experiment: Displacement of tracer 236 from N-terminal GST-tagged recombinant human MET F1200I mutant (956 to end residues) expressed in Sf9 insect cells incubated for 1 hr by TR-FRET assay
[4] = molecular target: Hepatocyte growth factor receptor (Homo sapiens, UniProt P08581, Y1230H); experiment: Displacement of tracer 236 from N-terminal GST-tagged recombinant human MET Y1230H mutant (956 to end residues) expressed in Sf9 insect cells incubated for 1 hr by TR-FRET assay
[5] = molecular target: T1, Hepatocyte growth factor receptor; experiment: Inhibition of MET D1228N mutant (unknown origin) transfected in mouse NIH3T3 cells incubated for 1 hr by In-Cell Western assay; format: cell-based
[6] = Efflux ratio of apparent permeability across basolateral to apical over apical to basolateral side in MDCKII-MDR1 cells at 1 uM incubated for 2 hrs in orbital shaker by LC-MS/MS analysis; format: ADME, cell-based, Canis lupus familiaris; conditions: dog, MDCK-MDR1
[7] = Displacement of tracer 236 from N-terminal GST-tagged recombinant human MET […] mutant (956 to end residues) expressed in Sf9 insect cells incubated for 1 hr by TR-FRET assay
[8] = Apparent permeability across apical to basolateral side in MDCKII-MDR1 cells at 1 uM incubated for 2 hrs in orbital shaker by LC-MS/MS analysis; format: ADME, cell-based, Canis lupus familiaris; conditions: dog, MDCK-MDR1
[9] = Metabolic stability in human hepatocytes assessed as clearance at 2 uM measured upto 120 mins by LC-MS/MS analysis; format: ADME, cell-based, Hepatocyte
[10] = Metabolic stability in mouse hepatocytes assessed as clearance at 2 uM measured upto 120 mins by LC-MS/MS analysis; format: ADME, cell-based, Hepatocyte

T1 sequence (P08581 25-1390 D1228N limits assumed): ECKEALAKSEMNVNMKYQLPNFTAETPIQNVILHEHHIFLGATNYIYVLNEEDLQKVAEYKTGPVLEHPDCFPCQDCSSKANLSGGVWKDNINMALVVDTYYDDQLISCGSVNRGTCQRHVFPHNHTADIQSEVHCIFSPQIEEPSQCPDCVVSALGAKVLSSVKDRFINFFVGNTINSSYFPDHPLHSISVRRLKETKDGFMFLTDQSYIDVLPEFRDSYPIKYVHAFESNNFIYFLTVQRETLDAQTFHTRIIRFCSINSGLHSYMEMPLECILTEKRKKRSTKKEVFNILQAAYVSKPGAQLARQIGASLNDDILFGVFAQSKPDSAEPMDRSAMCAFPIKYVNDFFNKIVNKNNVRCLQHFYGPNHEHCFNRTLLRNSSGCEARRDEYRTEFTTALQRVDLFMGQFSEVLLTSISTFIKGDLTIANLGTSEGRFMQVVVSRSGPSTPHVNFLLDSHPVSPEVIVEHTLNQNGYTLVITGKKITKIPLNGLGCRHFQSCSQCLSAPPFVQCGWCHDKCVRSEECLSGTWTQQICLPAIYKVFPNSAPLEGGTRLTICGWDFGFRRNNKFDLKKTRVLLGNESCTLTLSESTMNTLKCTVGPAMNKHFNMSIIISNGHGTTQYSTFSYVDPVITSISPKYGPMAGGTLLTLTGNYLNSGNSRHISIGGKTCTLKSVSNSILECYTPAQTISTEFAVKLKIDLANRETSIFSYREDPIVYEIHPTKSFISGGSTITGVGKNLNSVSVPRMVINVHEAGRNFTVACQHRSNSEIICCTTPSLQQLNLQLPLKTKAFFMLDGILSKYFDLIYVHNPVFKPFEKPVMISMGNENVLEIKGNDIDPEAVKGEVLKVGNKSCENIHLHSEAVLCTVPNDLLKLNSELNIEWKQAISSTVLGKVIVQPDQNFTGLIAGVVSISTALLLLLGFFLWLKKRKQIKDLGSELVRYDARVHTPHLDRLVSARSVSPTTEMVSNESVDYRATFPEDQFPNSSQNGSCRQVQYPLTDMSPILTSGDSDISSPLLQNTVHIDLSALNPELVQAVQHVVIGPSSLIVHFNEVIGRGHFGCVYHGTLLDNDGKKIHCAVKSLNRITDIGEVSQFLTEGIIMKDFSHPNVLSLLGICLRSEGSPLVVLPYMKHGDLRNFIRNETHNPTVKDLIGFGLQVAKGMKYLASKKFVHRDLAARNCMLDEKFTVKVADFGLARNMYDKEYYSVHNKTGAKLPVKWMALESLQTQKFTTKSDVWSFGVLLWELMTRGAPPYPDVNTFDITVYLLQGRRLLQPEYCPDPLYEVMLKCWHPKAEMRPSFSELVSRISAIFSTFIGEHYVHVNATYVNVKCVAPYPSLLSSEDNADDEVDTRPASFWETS
Sequence of Hepatocyte growth factor receptor (Homo sapiens, UniProt P08581, Y1230H) (P08581 25-1390 Y1230H limits assumed): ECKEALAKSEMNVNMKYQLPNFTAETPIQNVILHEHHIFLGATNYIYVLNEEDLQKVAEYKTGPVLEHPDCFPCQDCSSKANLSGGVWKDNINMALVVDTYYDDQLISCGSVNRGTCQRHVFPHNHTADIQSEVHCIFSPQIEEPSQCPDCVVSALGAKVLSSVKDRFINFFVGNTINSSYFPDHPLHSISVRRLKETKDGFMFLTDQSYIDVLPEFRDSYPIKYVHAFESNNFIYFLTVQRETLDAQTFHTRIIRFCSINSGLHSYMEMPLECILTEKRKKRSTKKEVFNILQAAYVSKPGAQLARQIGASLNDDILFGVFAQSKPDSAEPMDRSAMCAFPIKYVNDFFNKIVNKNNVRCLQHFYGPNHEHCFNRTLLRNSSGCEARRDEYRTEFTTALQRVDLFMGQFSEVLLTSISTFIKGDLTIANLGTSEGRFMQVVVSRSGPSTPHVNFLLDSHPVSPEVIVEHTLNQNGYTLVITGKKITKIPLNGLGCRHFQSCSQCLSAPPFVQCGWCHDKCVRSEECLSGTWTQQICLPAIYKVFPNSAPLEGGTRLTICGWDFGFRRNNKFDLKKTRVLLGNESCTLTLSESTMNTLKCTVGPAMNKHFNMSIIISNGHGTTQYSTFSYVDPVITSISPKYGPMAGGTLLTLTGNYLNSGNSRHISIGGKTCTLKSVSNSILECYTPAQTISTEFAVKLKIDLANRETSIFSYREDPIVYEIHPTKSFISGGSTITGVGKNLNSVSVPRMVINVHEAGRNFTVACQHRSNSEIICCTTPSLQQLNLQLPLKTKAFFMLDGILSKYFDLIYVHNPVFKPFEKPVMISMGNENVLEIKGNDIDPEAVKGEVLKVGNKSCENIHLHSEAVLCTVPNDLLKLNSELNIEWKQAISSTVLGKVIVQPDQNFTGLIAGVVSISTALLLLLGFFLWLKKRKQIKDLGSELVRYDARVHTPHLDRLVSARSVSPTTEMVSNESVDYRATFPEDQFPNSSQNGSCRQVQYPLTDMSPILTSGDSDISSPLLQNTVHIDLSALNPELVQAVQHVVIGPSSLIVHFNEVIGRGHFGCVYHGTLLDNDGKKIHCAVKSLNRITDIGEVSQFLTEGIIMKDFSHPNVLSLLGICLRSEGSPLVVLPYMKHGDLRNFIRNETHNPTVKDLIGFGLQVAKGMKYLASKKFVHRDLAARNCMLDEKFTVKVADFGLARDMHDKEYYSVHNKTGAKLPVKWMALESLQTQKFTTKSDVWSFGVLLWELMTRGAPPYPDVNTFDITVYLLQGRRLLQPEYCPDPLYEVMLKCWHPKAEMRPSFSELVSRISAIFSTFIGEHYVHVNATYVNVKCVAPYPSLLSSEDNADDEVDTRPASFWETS

| IC50 [1] | IC50 [3] | IC50 [4] | IC50 [5] | efflux ratio at 2 h, 1 µM [6] | Papp A→B at 2 h, 1 µM [8] | CLhep predicted at 2 µM [9] | CLhep predicted at 2 µM [10] | SMILES | IC50 [2] | IC50 [7] |
| --- | --- | --- | --- | --- | --- | --- | --- | --- | --- | --- |
| 1770 nM | 5000 nM | 758 nM | > 5000 nM | 0.9 | – | – | – | Cc1cc2c(N(c3cc(F)c(NC(=O)c4ccnn(-c5ccc(F)cn5)c4=O)cc3F)[C@H]3C[C@H](c4ccn(C)n4)C3)nccn2n1 | 397 nM | – |
| 24 nM | 222 nM | 30 nM | 158 nM | – | – | – | – | O=C(Nc1cc(F)c(N(c2cccn3nccc23)C2CCC2)cc1F)c1ccnn(-c2ccc(F)cc2)c1=O | 16 nM | 57 nM |
| 6 nM | 98 nM | 5 nM | 40 nM | – | 15 ×10⁻⁶ cm/s | 9 mL/min/kg | 31 mL/min/kg | Cc1cc(N(c2cc(F)c(NC(=O)c3ccnn(-c4ccc(F)cn4)c3=O)cc2F)[C@H]2C[C@H](c3ccn(C)n3)C2)c(F)cn1 | – | 36 nM |
| 86 nM | 763 nM | 92 nM | 336 nM | – | – | – | – | CC(C)N(c1cc(F)c(NC(=O)c2ccnn(-c3ccc(F)cc3)c2=O)cc1F)c1cccn2nccc12 | 71 nM | 298 nM |
| 33 nM | 278 nM | 11 nM | 37 nM | – | 2 ×10⁻⁶ cm/s | 3 mL/min/kg | 15 mL/min/kg | Cn1ccc([C@H]2C[C@H](N(c3cc(F)c(NC(=O)c4ccnn(-c5ccc(F)cn5)c4=O)cc3F)c3cc(F)cn4nccc34)C2)n1 | 13 nM | 41 nM |
| 10 nM | 217 nM | 5 nM | 41 nM | 0.9 | 4 ×10⁻⁶ cm/s | 22 mL/min/kg | 17 mL/min/kg | Cc1cc(N(c2nccn3nccc23)[C@H]2C[C@H](c3ccn(C)n3)C2)c(F)cc1NC(=O)c1ccnn(-c2ccc(F)cn2)c1=O | – | 64 nM |
| 79 nM | 3280 nM | 32 nM | 519 nM | – | – | – | – | Cn1ccc([C@H]2C[C@H](N(c3cc(C(F)F)c(NC(=O)c4ccnn(-c5ccc(F)cn5)c4=O)cc3F)c3nccn4nccc34)C2)n1 | 13 nM | 942 nM |
| 5 nM | 36 nM | 4 nM | 20 nM | – | 5 ×10⁻⁶ cm/s | 21 mL/min/kg | 77 mL/min/kg | Cn1ccc([C@H]2C[C@H](N(c3cc(F)c(NC(=O)c4ccnn(-c5ccc(F)cn5)c4=O)cc3F)c3cccn4nccc34)C2)n1 | – | 12 nM |
| 7 nM | 171 nM | 6 nM | 39 nM | – | – | – | – | CO[C@H]1C[C@@H](N(c2cc(F)c(NC(=O)c3ccnn(-c4ccc(F)cn4)c3=O)cc2F)c2cccn3nccc23)C1 | 4 nM | 46 nM |
